Reference: a melting point compilation (Tetko et al.; mined from patent text by program, amines drawn as free bases though some values may be those of a salt)

SMILES	melting point
COc1ccc(-c2[nH]nc3c2C(=O)c2c(NC(=O)Cc4cccc(OC)c4)cccc2-3)cc1	> 300 °C
c1ccc2nc(-c3cc4nccnc4[nH]3)ccc2c1	293 to 295 °C
COc1cc(C(C)C)c2c(c1)S(=O)(=O)N(COc1cc(C)nn1-c1ccc([N+](=O)[O-])cc1)C2=O	196 to 198 °C
CC(C)(C)OC(=O)N[C@H](Cc1ccc(C(F)(F)F)cc1)[C@@H](O)c1ccncc1 (racemic)	198 to 200 °C
O=C(CCCl)c1ccc2c(c1)Cc1cc(C(=O)CCCl)ccc1O2	180 to 181 °C
O=C(Nc1cccc(S(=O)(=O)NC2CC2)c1)c1cnn2c(C(F)(F)F)cc(-c3ccc(C(F)(F)F)cc3)nc12	232 °C
Nc1nsc(Nc2c(Cl)cccc2Cl)n1	178 to 179 °C
NC(=O)c1cc2ccccc2o1	165 to 166 °C
CC(C)Cn1c(CNC(=O)OC(C)(C)C)c(-c2ccccc2)c2cc(/C=C/C(N)=O)ccc2c1=O	146 to 147 °C
COc1ccc(-c2ccc(N3CCCN(c4ccc(-c5ccc(OC)cc5OC)cn4)CC3)nc2)c(OC)c1	161 to 163 °C
COc1ccc2c(c1O)C13CCN(C)C(C2)C1CC(C)C(=O)C3 (stereo not given)	166 to 167 °C
CC(C)(C)C(NC(=O)c1ccc(Cl)cc1)Nc1c(Nc2ccc(Cl)nc2)c(=O)c1=O (stereo not given)	258 to 259 °C
COc1ccc(-n2c(-c3ccc(Cl)cc3Cl)nc(C(=O)O)c2C)cc1	189 to 191 °C
CCOC(=O)C1=C(C)Nc2nc(N3CCOCC3)nc(N3CCOCC3)c2C1c1cccnc1 (stereo not given)	229 °C
N#Cc1ccccc1-c1ccc(CN2C(=O)c3ccccc3C2=O)cc1	150 to 153 °C
CCC(=O)NCCC1=C(C(C)C)Cc2cnc3c(c21)CCO3	168 to 170 °C
N#Cc1ccc(N(Cc2ccc(OS(N)(=O)=O)cc2)n2cnnc2)cc1-c1cc2ccccc2o1	202 to 203 °C
Cc1ccc2c(c1)sc1ncc(C=O)n12	170 to 171 °C
CSC(=NC(C)=O)Nc1c(Cl)cccc1Cl	137 to 140 °C
CS(=O)(=O)CCOS(C)(=O)=O	55 to 57 °C
Cc1ccc2c(c1)Sc1ccc(Cl)cc1CC2N1CCN(C)CC1 (stereo not given)	136 to 138 °C
CC(C)(C)c1cc(C(=O)c2ccc(Cl)cc2)cc(CN2CCOCC2)c1O	165 to 166 °C
CCn1c(=O)n(O)c(=O)c2cc(F)c(N3CCCC3)cc21	170 to 171 °C
Cc1cccc(C(=O)NC(C)C)c1N	149 to 151 °C

SMILES	melting point
N#Cc1cc([N+](=O)[O-])c2sc(N3CCC4(CC3)OCCO4)nc(=O)c2c1	217 to 220 °C
Fc1ccc([C@@]2(Cn3nc[nH]c3=S)O[C@@H]2c2ccccc2C(F)(F)F)cc1F (relative stereo)	143 to 146 °C
S=C(NCN1CCOCC1)C(c1ccccc1)c1ccccn1 (stereo not given)	128 to 130 °C
CCCCCCCCCCCCCCCCCCCNC(=O)C1CSC(c2cccnc2)N1 (stereo not given)	108 to 110 °C
COc1cc(COc2nn(Cc3ccccc3)cc2C(=O)O)ccc1OCc1nc(-c2ccccc2)oc1C	162 to 163 °C
COc1cc2c(=O)c(C#N)c[nH]c2cc1F	147 to 149 °C
O=C1CCCN1C(=O)Oc1ccccc1[N+](=O)[O-]	135 to 136 °C
CC(C)c1ccc2c(c1)c(Sc1ccccc1)c(CCC(=O)O)n2Cc1ccc(Cl)cc1	149 to 150 °C
O=C1OC(CCCO)C(c2ccccc2)=C1O (stereo not given)	148 to 150 °C
CC12CCC(O)CC1=CC(O)C1C2CCC2(C)C(O)C(O)CC12 (stereo not given)	217 to 221 °C
CC(C)(C)C(=O)Nc1c(SC(F)(F)F)c(C#N)nn1-c1c(Cl)cc(C(F)(F)F)cc1Cl	172 to 174 °C
CC(C)COc1ccc(-c2nc3cccc(O)c3s2)cc1C#N	200 to 202 °C
O=C(O)CCCCCc1nn(-c2ccc(F)cc2)c2c1CCCC2	95 to 96 °C
CCc1cc(C(C)=O)nn1-c1ccc([N+](=O)[O-])cc1	93 to 95 °C
COc1nc2c(c(OC)n1)C(c1ccc(O)c(OC)c1)C1=C(COC1=O)N2 (stereo not given)	294 to 296 °C
COc1ccc(-c2csc(Nc3ccc(C)cn3)n2)cc1OC	190 to 192 °C
O=C(/C=C/c1ccc(C(=O)Nc2cccc(Nc3nc(-c4cccnc4)cs3)c2)cc1)NOC1CCCCO1 (stereo not given)	158 °C
C=CCN(CC=C)c1ccc2[nH]c3cnc(-c4nc(CC)no4)nc3c2c1	175 to 184 °C
COc1ccc(CC(=O)NC2CCN(Cc3ccccc3)CC2)cc1	171 to 173 °C
CCOC(=O)c1cc2cc([N+](=O)[O-])ccc2s1	163 °C
O=C(Nc1cccc(S(=O)(=O)Nc2ccccc2)c1)NC1N=C(c2ccccc2F)c2ccccc2N(CC(=O)N2CC3CCC(CC3)C2)C1=O (racemic)	181 to 188 °C
O=C(NCCCN1CCC(c2ccccc2)(c2ccccc2)CC1)N1C(=O)OCC1c1ccc(F)c(Cl)c1 (stereo not given)	112 to 115 °C
O=[N+]([O-])c1cc(C(F)(F)F)ccc1S(=O)(=O)NCC(O)(Cn1cncn1)c1ccc(Cl)cc1Cl (stereo not given)	97 to 105 °C
CS(=O)c1nc2cc(Oc3ccc(Cl)cc3Cl)c(Cl)cc2[nH]1 (stereo not given)	206 to 208 °C

SMILES	melting point
Cn1c(COc2ccc(CC3SC(=O)NC3=O)cc2)nc2ncccc21 (stereo not given)	231 to 232 °C
CC1(C)OC(=O)C(C(=O)C2CC2)C(=O)O1	44 to 46 °C
CCCOc1nc(N)c2ncn(C3CCCCC3)c2n1	146 to 148 °C
O=C(O)Cc1nn(Cc2nc3cc(C(F)(F)F)ccc3s2)c(=O)c2nccnc12	192 to 193 °C
CC(=O)N1CCC(C)(C)C(=O)c2ccc(Cl)cc2CCC1=O	113 to 115 °C
COc1ccc(N(C=C(C#N)C#N)CCC#N)cc1	175 to 177 °C
CC(=O)Nc1ccc2c(c1)-n1cc(C(=O)O)nc1CO2	295 to 296 °C
Cc1cccc(Sc2cncc3sc(C(N)=O)cc23)c1	171 to 173 °C
Cn1nc(O)cc1C(F)F	115 to 119 °C
O=C(CCCN1CC=C(c2cccc3[nH]ccc23)CC1)c1ccc(F)cc1	155 °C
Cc1ccccc1C(=O)c1ccc(CC#N)n1C	90 to 92.5 °C
CCOC(=O)C1C(C)C=CC(NC(=O)OC(C)(C)C)C1[N+](=O)[O-] (stereo not given)	139 to 145 °C
CN1Cc2c(-c3nc(CN)no3)ncn2-c2ccccc2C1=O	183 to 185 °C
CNc1sc(-c2cccnc2)nc1C	84 to 87 °C
COC(=O)[C@@H]1C[C@@H](O)CN1C(=O)c1ccc(C#N)cc1	101 to 102 °C
COCCN(C)C(=O)COc1cc(-c2ccc(C)cc2)nc2cccc(C(F)(F)F)c12	116 °C
Cc1oc(-c2ccccc2)nc1COc1ccc(C=CC=O)cc1	114 to 115 °C
ClCCCOc1ccc(OCCCCl)c(Cl)c1	135 °C
Cc1nc(-c2cccc(CN(C(=O)Nc3ccc(Br)cc3)c3ccccc3)c2)no1	145 to 146 °C
COc1cc(Nc2c(C#N)cnc3cc(/C=C/CCN4CCOCC4)ccc23)cc(OC)c1OC	128 to 130 °C
C=c1c(=O)[nH]c2n1Cc1cc(OCCCC(=O)N(C)C3CCCCC3)ccc1N=2	176 to 178 °C
CC(C)(O)c1cnn2c(-c3cccc(-c4ccncc4)c3F)cnc2n1	221 to 223 °C
